Experimental findings from US12180178B2, “Heteroaryl azole compound and pest control agent” (NIPPON SODA CO., LTD., priority 2018, dated 2024) are described below.

Each structure is given as a SMILES string.

What all share (format): in vivo
The test system of one test is Mythimna separata. Put plainly: Test of Efficacy on Mythimna separata (test feed). The settings on record: 1 μl of emulsion (I) (5% active ingredient) in 0.8 g artificial feed; second instar larvae; 25° C.; fifth day. As to the method: 5 parts of the heteroaryl azole compound of the present invention, 93.6 parts of dimethylformamide, and 1.4 parts of polyoxyethylene alkyl aryl ether were mixed and dissolved to prepare emulsion (I) containing 5% of the active ingredient. For a control, 98.5 parts of dimethylformamide and 1.5 parts of polyoxyethylene alkyl aryl ether were mixed and dissolved to prepare emulsion (II). An insecticidal rate was calculated according to the following expression: Insecticidal rate (%)=(The number of dead insects/The number of tested insects)×100 0.8 g of commercially available artificial feed (Insecta LFS, manufactured by Nosan Corp.) and 1 μl of the emulsion (I) were well mixed to obtain test feed. A plastic test container (capacity: 1.4 ml) was packed with 0.2 g of the test feed per treatment plot. Then, two second instar larvae of Mythimna separata were inoculated to each treatment plot. A plastic lid was put on the test container so as to prevent escape of the second instar larvae of Mythimna separata. The container was placed in a thermostat chamber of 25° C. On the fifth day, the insecticidal rate and the food intake were examined. The test was conducted in duplicate. The insecticidal rate and the food intake of a control plot were examined in the same way as in Test Example 1 except that the emulsion (I) was changed to the emulsion (II).

Another test deals with Plutella xylostella. Put plainly: Test of Efficacy on Plutella xylostella (cabbage leaf dip). Conditions: foliar, 72 h, cabbage leaves dipped 30 seconds, second instar larvae, after 3 days, read-out: insecticidal rate. As to the method: 5 parts of the heteroaryl azole compound of the present invention, 93.6 parts of dimethylformamide, and 1.4 parts of polyoxyethylene alkyl aryl ether were mixed and dissolved to prepare emulsion (I) containing 5% of the active ingredient. An insecticidal rate was calculated according to the following expression: Insecticidal rate (%)=(The number of dead insects/The number of tested insects)×100 The emulsion (I) was diluted with water such that the concentration of the compound of the present invention was 125 ppm. Cabbage leaves were dipped in the dilution for 30 seconds. The resulting cabbage leaves were placed in a petri dish. Five second instar larvae of Plutella xylostella were released thereto. The petri dish was placed in a thermostat chamber having a temperature of 25° C. and a humidity of 60%. Life and death were determined after 3 days from the release of the insects, and the insecticidal rate was calculated. The test was conducted in duplicate.

The subject of the next test is Phyllotreta striolata. Put plainly: Test of Efficacy on Phyllotreta striolata (spray on Qing geng cai seedlings). The settings on record: 168 h, sprayed to Qing geng cai seedlings, adults, after 7 days, read-out: insecticidal rate. The protocol:
(§1) 5 parts of the heteroaryl azole compound of the present invention, 93.6 parts of dimethylformamide, and 1.4 parts of polyoxyethylene alkyl aryl ether were mixed and dissolved to prepare emulsion (I) containing 5% of the active ingredient.
(§2) An insecticidal rate was calculated according to the following expression: Insecticidal rate (%)=(The number of dead insects/The number of tested insects)×100
The emulsion (I) was diluted with water such that the concentration of the compound of the present invention was 125 ppm to prepare a test chemical. The test chemical was sprayed to Qing geng cai seedlings (at the seventh true leaf stage) planted in 10-cm pots. The Qing geng cai seedlings were dried in air and then placed in a plastic cup. Ten Phyllotreta striolata adults were released thereto. The plastic cup was stored in a thermostat chamber having a temperature of 25° C. and a humidity of 65%. Life and death were determined after 7 days from the release of the insects, and the insecticidal rate was calculated. The test was conducted in duplicate.

In the next test the test system is Aphis craccivora. Put plainly: Test of Efficacy on Aphis craccivora (spray on black-eyed peas). The settings on record: 96 h, 125 ppm, sprayed to black-eyed peas, nymphs, after 4 days, read-out: insecticidal rate. As to the method: as §1, §2
Seedlings of black-eyed peas were raised in 10-cm pots. Aphis craccivora nymphs were inoculated onto primary leaves. The emulsion (I) was diluted with water such that the concentration of the compound of the present invention was 125 ppm. The dilution was sprayed to the black-eyed peas parasitized by the Aphis craccivora nymphs. The black-eyed peas were placed in a thermostat chamber having a temperature of 25° C. and a humidity of 60%. Life and death of Aphis craccivora were determined after 4 days from the spraying, and the insecticidal rate was calculated. The test was conducted in duplicate.

For `CCS(=O)(=O)c1cc(-c2ncccn2)cnc1-c1ncn(CC(F)(F)C(F)(F)C(F)(F)F)c1C` [c-5], the “insecticidal rate or food intake as compared with the control plot” value in the test on Mythimna separata was “insecticidal rate of 100% for Mythimna separata or a food intake of 10% or less as compared with the control plot”. Also, the pest or weed control at 125 ppm in the test on Plutella xylostella, with Phyllotreta striolata and in the test with Aphis craccivora was at least 80% in each case.

With `CCS(=O)(=O)c1cc(-c2ncccn2)cnc1-c1ncn(/C=C(\F)C(F)(F)C(F)(F)F)c1C` [c-8], the pest or weed control at 125 ppm in the test with Plutella xylostella and with Phyllotreta striolata was at least 80% throughout.

As to `CCS(=O)(=O)c1cc(-c2ncccn2)cnc1-c1ncn(/C=C(\F)C(F)(F)I)c1C` [c-9], the pest or weed control at 125 ppm with Plutella xylostella and in the test on Phyllotreta striolata was at least 80% each time.

For the compound `CCS(=O)(=O)c1cc(-c2ncccn2)cnc1-c1ncn(-c2ccc(OC(F)(F)F)cc2)n1` [d-1], the pest or weed control at 125 ppm with Plutella xylostella and in the test with Phyllotreta striolata was at least 80% throughout.

For the compound `CCS(=O)(=O)c1cc(-c2ccccn2)cnc1-c1ncn(-c2ccc(OC(F)(F)F)cc2)n1` [d-6], the “insecticidal rate or food intake as compared with the control plot” value in the test on Mythimna separata is reported as “insecticidal rate of 100% for Mythimna separata or a food intake of 10% or less as compared with the control plot”. For the same compound, the pest or weed control at 125 ppm with Plutella xylostella, in the test on Phyllotreta striolata and in the test on Aphis craccivora was at least 80% each time.

Consider `CCS(=O)(=O)c1cc(C2CC2)cnc1-c1ncn(-c2ccc(OC(F)(F)F)cc2)n1` [d-7], for which the pest or weed control at 125 ppm with Plutella xylostella and in the test on Phyllotreta striolata was at least 80% in each case.

On to `CCS(=O)(=O)c1cc(C2CC2)cnc1-c1cn(-c2ccc(OC(F)(F)F)cc2)cn1` [d-19, 5-cyclopropyl-3-(ethylsulfonyl)-2-(1-(4-(trifluoromethoxy)phenyl)-1H-imidazol-4-yl)pyridine], for which the “insecticidal rate or food intake as compared with the control plot” value in the test with Mythimna separata was “insecticidal rate of 100% for Mythimna separata or a food intake of 10% or less as compared with the control plot”. Also, the pest or weed control at 125 ppm in the test with Plutella xylostella, with Phyllotreta striolata and with Aphis craccivora was at least 80% in each case.

As to `CCS(=O)(=O)c1cc(-c2ccccn2)cnc1-c1cn(-c2ccc(OC(F)(F)F)cc2)cn1` [d-20], in the test with Mythimna separata, the “insecticidal rate or food intake as compared with the control plot” value was “insecticidal rate of 100% for Mythimna separata or a food intake of 10% or less as compared with the control plot”. Moreover, the pest or weed control at 125 ppm with Plutella xylostella, in the test with Phyllotreta striolata and in the test with Aphis craccivora was at least 80% each time.

As for `CCS(=O)(=O)c1cc(C2CC2)c[n+]([O-])c1-c1cn(-c2ccc(OC(F)(F)F)cc2)cn1` [d-22], the pest or weed control at 125 ppm in the test on Plutella xylostella, in the test on Phyllotreta striolata and in the test on Aphis craccivora was at least 80% in each case.

For the compound `CCS(=O)(=O)c1cc(-c2ccccn2)cnc1-c1ncn(-c2ccc(OC(F)(F)F)cc2)c1C` [d-25], the “insecticidal rate or food intake as compared with the control plot” value with Mythimna separata is reported as “insecticidal rate of 100% for Mythimna separata or a food intake of 10% or less as compared with the control plot”. In addition, the pest or weed control at 125 ppm in the test on Plutella xylostella and in the test with Aphis craccivora was at least 80% throughout.

For `CCS(=O)(=O)c1ccc(-n2cncn2)nc1-c1ncn(-c2ccc(OC(F)(F)F)cc2)c1Br` [d-26], the “insecticidal rate or food intake as compared with the control plot” value in the test on Mythimna separata is given as “insecticidal rate of 100% for Mythimna separata or a food intake of 10% or less as compared with the control plot”. The pest or weed control at 125 ppm with Plutella xylostella and in the test with Aphis craccivora was at least 80% in each case.

On to `CCS(=O)(=O)c1ccc(-n2cncn2)nc1-c1ncn(-c2ccc(OC(F)(F)F)cc2)c1C` [d-27], for which, in the test on Mythimna separata, the “insecticidal rate or food intake as compared with the control plot” value is recorded as “insecticidal rate of 100% for Mythimna separata or a food intake of 10% or less as compared with the control plot”. The pest or weed control at 125 ppm with Plutella xylostella and with Aphis craccivora was at least 80% in each case.
